We go through one substance from publication PMC3268671 (Cell, 2012).

The target of the experiment is PfHRPII HT-GFP (HT/RLLYE-GFP). It counts as binding, Plasmodium falciparum.

The Kd is the concentration at which binding is half-saturated. As to PI(3)P, the Kd was over 5 µM.
